# Measured values reported in US10933030B2, “Use of paeonol for inhibiting angiogenesis or for enhancing radiosensitization” (priority 2005, dated 2021).
# Assays:
# B16BL6 melanoma cells [1] = assay: Lifetime elongation, paeonol in combination with 5-FU; assay type: in vivo, mouse; conditions: after 22 days, n=7
# Experimental: Effects of paeonol on lifetime elongation of tumor-induced mice were investigated.
# (§1) For the induction of primary tumor, B16BL6 melanoma cells (1×10^6) suspended in 0.2 ml of PBS were subcutaneously injected into C57BL6 female mice (SLC Co., Japan; 6 week-old, 20-25 g of body weight) adapted for 1 week.
# In 5-FU & paeonol treated group, 70 mg/kg per mouse of 5-FU was intraperitoneally injected at 3 day and 6 day after injecting cancer cells, and 1 mg per mouse of paeonol dissolved in 0.2 ml of 20% ethanol was orally administrated twice a day for 21 days after injecting cancer cells. In 5-FU treated group, 70 mg/kg per mouse of 5-FU was treated in the same manner as 5-FU & paeonol treated group. In the other hand, 0.2 ml of 20% ethanol was also orally administrated into control group and 5-FU treated group in the same manner as 5-FU & paeonol treated group.
# B16BL6 melanoma cells [2] = assay: Tumor growth, paeonol in combination with 5-FU; assay type: in vivo; conditions: 5-FU 70 mg/kg i.p. at day 3 and 6; paeonol 1 mg per mouse oral twice a day for 21 days
# Experimental: Synergy effect of paeonol in combination with anti-cancer drug, 5-fluorouracil (5-FU) was investigated. For the induction of primary tumor, B16BL6 melanoma cells (1×10^6) suspended in 0.2 ml of PBS were subcutaneously injected into C57BL6 female mice (SLC Co., Japan; 6 week-old, 20-25 g of body weight) adapted for 1 week. […] The size of tumor was measured once per 1-2 days for 21 days after injecting cancer cells and then the volume of tumor was calculated in accordance with the following equation, (width)^2×(length)×0.52.
# [3] = Acute toxicity test in animal; assay type: in vivo; conditions: dosage of 100 mg/kg
# B16BL6 melanoma cells [4] = assay: Radiosensitization in melanoma-transplanted mice, tumor volume; assay type: in vivo, mouse; conditions: for decrease of tumor volume compared with control group: paeonol-treated group, no irradiation
# Experimental: Effect of treatment of paeonol during radiation into melanoma-transplanted animal on radiosensitization was investigated. In order to induce primary tumor, B16BL6 melanoma cells (1×10^6) suspended in 0.2 ml of PBS was subcutaneously injected into C57BL6 female mice (SLC Co., Japan; 6 week-old […]) adapted for 1 week. Melanoma-transplanted mice were classified into 6 groups: control group (n=10), irradiation group (n=10), paeonol-treated groups (0.5 or 1 mg/kg per day) (n=10), and irradiation & paeonol-treated groups (0.5 or 1 mg/kg per day) (n=10), and then it was observed whether the combinational treatment of irradiation and paeonol enhances the radiosensitization of melanoma-transplanted animal. […] For control group and irradiation group, 20% ethanol was orally administered in the same manner as paeonol-treated group. The sizes (width, length) of tumor were measured for 30 days at an interval of 2 or 3 days, and then the volumes of tumor were calculated by the following equation, (width)^2×(length)×0.52.
# [5] = tested on: human lung carcinoma cell (NCI-H460); assay: Cytotoxicity test by MTT assay, lung carcinoma cell; assay type: cell-based
# Experimental: (§2) In order to examine the cytotoxicity of paeonol, 2×10^5 of normal human lung cell (BEAS-2B), human lung carcinoma cell (NCI-H460), human uterine carcinoma cell (HeLa) were treated with various concentrations (0.25, 0.5, 1, 2, 10 μg/ml) of paeonol for 24 hours, and then viabilities of each cells were measured by MTT assay.
# B16BL6 melanoma cells [6] = assay: Tumor metastasis into lung after intravenous injection of melanoma cells; assay type: in vivo, mouse
# Experimental: Inhibitory effects of the present composition comprising paeonol on tumor metastasis in tumor-induced mice were investigated. […] 0.25 mg of the above isolated paeonol was dissolved in 0.2 ml of 20% ethanol, and then 0.25 mg per mouse of paeonol (0.5 mg/day) was orally administrated into the treated group (n=6) twice a day for 14 days after injecting cancer cells. In the other hand, 0.2 ml of 20% ethanol was also orally administrated into the control group (n=6) in the same manner as treated group. After 14 days, mice were dissected, and then the numbers of colonies, which metastasized into lung, were counted.
# [7] = tested on: mouse lung carcinoma cell line, LLC (Lewis lung carcinoma); assay: Radiosensitization in LLC-transplanted mice, survival; assay type: in vivo; conditions: for survival of mice: 5 mg/kg oral
# Experimental: Effect of treatment of paeonol during radiation into lung carcinoma cell line-transplanted animal on radiosensitization was investigated.
# 1×10^6 of mouse lung carcinoma cell line, LLC (Lewis lung carcinoma) cell were suspended in 0.2 ml of PBS, and then were injected into left leg of mouse in order to induce the tumor. LLC-transplanted mice were classified into 4 groups such as control group (n=10), irradiation-treated group (n=10), paeonol-treated group (n=10), and irradiation & paeonol-treated group (n=10).
# After the volumes of tumor were about 100-200 mm^3 (6-7 day after LLC injection), 5 Gy of ^60Co radiation was irradiated to irradiation-treated group and irradiation & paeonol-treated group three times at an interval of 2 or 3 days.
# After the existence of tumor was detected by touching with hand (4 day after LLC injection), 5 mg/kg of paeonol dissolved in 20% ethanol was orally administered into paeonol-treated group and irradiation & paeonol group once a day for 20 days. For control group and irradiation group, 20% ethanol was orally administered in the same manner as paeonol-treated group.
# Enhancing effects of paeonol in combination with radiation on efficacy of radiotherapy was determined by comparing both tumor growth rates and mouse survival rates of 4 groups with each other groups.
# B16BL6 melanoma cells [8] = assay: Growth of solid tumor in B16BL6 melanoma-injected mice; assay type: in vivo, mouse; conditions: oral 1 mg per day for 17 days; compared with control group
# Experimental: Effects of administering the present composition comprising paeonol on the growth of solid tumor were investigated. For the induction of primary tumor, B16BL6 melanoma cells (1×10^6) suspended in 0.2 ml of PBS ([…]) were subcutaneously injected into C57BL6 female mice (SLC Co., Japan; 6 week-old, 20-25 g of body weight) adapted for 1 week. 0.5 mg of the above isolated paeonol was dissolved in 0.2 ml of 20% ethanol, and then 0.5 mg per mouse of paeonol (1 mg/day) was orally administrated into the treated group (n=7) twice a day for 17 days after injecting cancer cells. In the other hand, 0.2 ml of 20% ethanol was also orally administrated into the control group (n=7) in the same manner as treated group. The size of tumor was measured once per 1-2 days for 17 days after injecting cancer cells and then the volume of tumor was calculated in accordance with the following equation, (width)^2×(length)×0.52.
# [9] = tested on: human lung carcinoma cell line H460; assay: Radiosensitization, clone formation of lung carcinoma cell line H460; assay type: cell-based
# Experimental: […] At 7 day after irradiation, the clone formation (%) of each groups were measured and then the survival rates of each groups were compared with each other. Irradiation with high dose of radiation into cancer cell line prevents clone formation.
# [10] = tested on: mouse lung carcinoma cell line, LLC (Lewis lung carcinoma); assay: Radiosensitization in LLC-transplanted mice, tumor growth rate; assay type: in vivo; conditions: for tumor growth rate went down as compared with control group: 5 mg/kg oral
# Experimental: Effect of treatment of paeonol during radiation into lung carcinoma cell line-transplanted animal on radiosensitization was investigated. 1×10^6 of mouse lung carcinoma cell line, LLC (Lewis lung carcinoma) cell were suspended in 0.2 ml of PBS, and then were injected into left leg of mouse in order to induce the tumor. LLC-transplanted mice were classified into 4 groups such as control group (n=10), irradiation-treated group (n=10), paeonol-treated group (n=10), and irradiation & paeonol-treated group (n=10). […] For control group and irradiation group, 20% ethanol was orally administered in the same manner as paeonol-treated group. […] The sizes (width, length) of tumor were measured for 30 days at an interval of 2 or 3 days, and then the volumes of tumor were calculated by the following equation, (width)^2×(length)×0.52. The tumor growth rates were also calculated by converting into the time which it takes for tumor volume to be 2000 mm^3.
# [11] = tested on: uterine carcinoma cell line HeLa; assay: Radiosensitization, clone formation of uterine carcinoma cell line HeLa; assay type: cell-based, human
# Experimental: […] At 7 day after irradiation, the clone formation (%) of each groups were measured and then the survival rates of each groups were compared with each other.
# [12] = tested on: normal human lung cell (BEAS-2B); assay: Cytotoxicity test by MTT assay, normal lung cell; assay type: cell-based
# Experimental: as §2
# [13] = tested on: human uterine carcinoma cell (HeLa); assay: Cytotoxicity test by MTT assay, uterine carcinoma cell; assay type: cell-based
# Experimental: as §2
# B16BL6 melanoma cells [14] = assay: Lifetime elongation of tumor-induced mice; assay type: in vivo, mouse; conditions: after 22 days; oral 1 mg/day; n=7
# Experimental: Effects of the present composition comprising paeonol on lifetime elongation of tumor-induced mice were investigated.
# as §1
# 0.5 mg of the above isolated paeonol was dissolved in 0.2 ml of 20% ethanol, and then 0.5 mg per mouse of paeonol (1 mg/day) was orally administrated into the treated group (n=7) twice a day for 22 days after injecting cancer cells. In the other hand, 0.2 ml of 20% ethanol was also orally administrated into the control group (n=7) in the same manner as treated group.
# angiogenesis = assay: Mouse Matrigel model of angiogenesis (hemoglobin in Matrigel); assay type: in vivo; conditions: oral 0.5 mg per mouse twice a day (1 mg/day) for 4 days
# Experimental: Effects of oral administration of paeonol on angiogenesis were quantitatively investigated in mouse Matrigel model. […] 0.5 mg of the above isolated paeonol was dissolved in 0.2 ml of 20% ethanol, and then 0.5 mg per mouse of paeonol (1 mg/day) was orally administrated into the treated group (n=8) twice a day for 4 days. In the other hand, 0.2 ml of 20% ethanol was also orally administrated into the control group (n=8) in the same manner as treated group. On the fifth day of oral administration, Matrigel was separated from excised skin of each mouse, and the level of hemoglobin in the Matrigel was measured in order to determine the inhibition of angiogenesis quantitatively.
# [15] = 10 μg/ml of paeonol, 24 hours, MTT
# [16] = Radiation 0 Gy, paeonol 1 μg/ml, 7 day
# [17] = Radiation 0 Gy, paeonol 2 μg/ml, 7 day
# [18] = Radiation 1 Gy, paeonol 2 μg/ml, 7 day after irradiation
# [19] = Radiation 2 Gy, paeonol 1 μg/ml, 7 day after irradiation
# [20] = Radiation 2 Gy, paeonol 2 μg/ml, 7 day after irradiation
# [21] = Radiation 3 Gy, paeonol 1 μg/ml, 7 day after irradiation
# [22] = Radiation 3 Gy, paeonol 2 μg/ml, 7 day after irradiation
smiles,measurement,setting,value
"O=c1[nH]cc(F)c(=O)[nH]1 [Compound 5-FU, 5-fluorouracil]",survival rate,"B16BL6 melanoma cells [1]; 5-FU 70 mg/kg i.p. at day 3 and 6, paeonol 1 mg per mouse oral twice a day",14%
same,number of mice survived,B16BL6 melanoma cells [1],one
same,inhibition of tumor growth compared with control group,B16BL6 melanoma cells [2],50%
COc1ccc(C(C)=O)c(O)c1 [paeonol],side effects during administration,[3],no side effects
same,"decrease of tumor volume compared with control group, maximum","B16BL6 melanoma cells [4]; irradiation & paeonol-treated groups (0.5 or 1.0 mg/kg), 5 Gy at 4 and 6 day, irradiation alone 33.1%",≤ 58.9%
same,decrease of tumor volume compared with control group,B16BL6 melanoma cells [4]; 0.5 mg/kg oral once a day,6.4%
same,decrease of tumor volume compared with control group,B16BL6 melanoma cells [4]; 1.0 mg/kg oral once a day,9.3%
same,cytotoxicity,[5]; [15],18%
same,LD50,[5]; human,did not show enough toxicity to calculate LD50
same,colonies metastasized into lung per mouse,"B16BL6 melanoma cells [6]; oral 0.25 mg per mouse twice a day (0.5 mg/day) for 14 days, control 213±60",132±80 colonies
same,inhibition of metastasis into lung,B16BL6 melanoma cells [6]; oral 0.5 mg/day for 14 days,38%
same,increase of survival rate compared with control group,[7]; irradiation & paeonol-treated group,about 2 times
same,survival of mice,"[7]; irradiation & paeonol-treated group, 5 Gy three times, control 42, irradiation alone 60",78 days
same,survival of mice,"[7]; paeonol-treated group, no irradiation, control 42",69 days
same,inhibition of tumor growth,B16BL6 melanoma cells [8],48%
same,decrease of clone formation compared with control group irradiated with 3 Gy,[9]; 1 μg/ml of paeonol,16%
same,decrease of clone formation compared with control group irradiated with 3 Gy,[9]; 2 μg/ml of paeonol,31%
same,Clone formation (%),[9]; [16],100%
same,Clone formation (%),[9]; [17],100%
same,Clone formation (%),[9]; [18],71.1%
same,Clone formation (%),"[9]; Radiation 1 Gy, paeonol 12 μg/ml, 7 day after irradiation",72.5%
same,Clone formation (%),[9]; [19],46.4%
same,Clone formation (%),[9]; [20],43.3%
same,Clone formation (%),[9]; [21],25.8%
same,Clone formation (%),[9]; [22],21.2%
same,tumor growth rate went down as compared with control group,"[10]; irradiation & paeonol-treated group, 5 Gy three times",1.4 fold
same,Tumor growth rate (Time which it takes for tumor volume to be 2000 mm^3),"[10]; irradiation & paeonol-treated group: 5 Gy 60Co three times, paeonol 5 mg/kg oral once a day for 20 days, control 16, irradiation alone 19",22 days
same,Tumor growth rate (Time which it takes for tumor volume to be 2000 mm^3),"[10]; paeonol-treated group, 5 mg/kg oral once a day for 20 days, no irradiation, control 16",19 days
same,tumor growth rate went down as compared with control group,"[10]; paeonol-treated group, no irradiation",1.2 fold
same,decrease of clone formation compared with control group irradiated with 3 Gy,[11]; 1 μg/ml of paeonol,23%
same,decrease of clone formation compared with control group irradiated with 3 Gy,[11]; 2 μg/ml of paeonol,39%
same,Clone formation (%),[11]; [16],100%
same,Clone formation (%),[11]; [17],100%
same,Clone formation (%),"[11]; Radiation 1 Gy, paeonol 1 μg/ml, 7 day after irradiation",73.4%
same,Clone formation (%),[11]; [18],72.8%
same,Clone formation (%),[11]; [19],45.5%
same,Clone formation (%),[11]; [20],44.7%
same,Clone formation (%),[11]; [21],12.3%
same,Clone formation (%),[11]; [22],10.9%
same,cytotoxicity,[12]; [15],6%
same,LD50,[12]; human,did not show enough toxicity to calculate LD50
same,cytotoxicity,[13]; [15],15%
same,LD50,[13]; human,did not show enough toxicity to calculate LD50
same,number of mice survived,B16BL6 melanoma cells [14],three
same,survival rate,B16BL6 melanoma cells [14],43%
same,inhibition of angiogenesis,angiogenesis,about 67%
same,hemoglobin content of treated group as compared with control group,angiogenesis; Matrigel with bFGF and heparin,33%
